Data: patent EP0315782A2, “Method for the production of proteins” (priority 1987, dated 1989)

Assays:
Bowes-Melanoma-Zellen = conditions: Kooistra et al.; cited from earlier work
CHO-Zellen [1] = assay: Extracellular protein content and [3H]-leucine incorporation in CHO cells, serum-free medium; assay type: cell-based, chinesische Hamster
CHO-Zellen [2] = assay: Cell growth / cell division of transformed CHO cells; assay type: cell-based, chinesische Hamster; conditions: compared with Buttersäure
Protocol: (§1) Die Zellkulturen werden bei 37°C in einem Hereaus-Brutschrank inkubiert und mit einem Kohlendioxid-Luftgemisch von 7,5% CO₂ in einer relativen Luftfeuchtigkeit von 100% belüftet. Je nach Verfahrensansatz werden unterschiedliche Kulturgefäße benutzt: Spinnergefäße für 100-1000 ml Medium, Roux-Schalen (Nunc) 175 cm² (70-100 ml Medium), 75 cm² (30-50 ml Medium), 25 cm² (7-10 ml Medium) und Mehrfachkulturschalen von Costar mit 2 cm² für 1 ml Kulturen. Für die Stammhaltung werden die Zellen in einer Dichte von 0,2-0,3 x 10⁶ Zellen/ml eingesetzt und alle 2-3 Tage subkloniert.
(§2) Für die Produktion von t-PA in serumhaltigem Medium wurde als frisches Medium F12/DMEM + 7,5% FKS + Gentamycin verwendet. Die resultierende Suspension kann in 2 cm² 24 Wells-Platten bei einer Zelldichte von 0,2-0,3 x 10⁶ Zellen/ml angesetzt werden.
Für die Produktion von t-PA in serumfreiem Medium wurden die Zellen zuvor 3-4 Tage in einem Medium von 1-2% FKS adaptiert, wieder abzentrifugiert und das Zellpellet in serumfreiem Medium resuspendiert und anschließend in 2 cm² 24 Wells-Platten in einer Zelldichte von 0,4-0,5 x 10⁶ Zellen/ml überführt.

CHO-Zellen [3] = assay: t-PA production in transformed CHO cells, medium with 7.5% FKS, supernatant, direct chromogenic assay (DCA); assay type: cell-based, chinesische Hamster
Text: Der Vektor für die t-PA-Produktion wurde in einem Subklon, CHO-K1-DUX B11, integriert (Urlaub et al., Proceedings of the National Academy of Science, USA, 77: 4216-4220, 1980). Diese Zell-Linie, eine Dihydrofolat Reduktase negative Mutante (DHFR-), ist für eine DHFR-abhängige Selektion der transfizierten Zellklone geeignet. Der Vektor für die humane c-DNA kann ein bekannter Plasmid-Vektor pBR-322 oder deren Abkömmling von Escherichia coli sein. Die Promotorregion für das in Frage kommende Gen und für das DHFR-Gen stammt aus SV 40 und die Terminationsregion für beide Gene von einem Hepatitis B-Oberflächenantigen. In den Beispielen wurden CHO-K1-DUX B11-Zellen, die durch die Plasmide pETPER oder pEPEFR transformiert sind, verwendet (siehe EP-A 0117059).
as §1
Die Protein-Produktion stimulierenden Substanzen können zu den verschiedenen Zeitpunkten jeweils in einer 1:100 Verdünnung zugegeben werden, d.h. sie wurden zuerst in Medium gelöst oder, wenn sie schwerlöslich sind, erst in Äthylalkohol gelöst und danach in Medium zugesetzt und dann das diese Substanz enthaltende Medium dem zellenthaltenden Medium im Verhältnis 1:100 v/v zugegeben.
In den folgenden Beispielen wurden, um die Stimulierung der t-PA-Synthese hervorzurufen, Zellen einer exponentiell wachsenden Kultur entnommen und in Plastikröhrchen (Falcon) 10 Min. bei 1000 x g in einer Beckmann T 3-6 Zentrifuge abzentrifugiert. Nach Dekantieren des Überstandes wurde das Zellpellet mit frischem Medium resuspendiert.
as §2
Aliquots von Zellüberständen und Zellextrakten wurden zu verschiedenen Zeitpunkten abgenommen bzw. hergestellt. Die Messung der Proben erfolgte entweder sofort oder nach Aufbewahrung bei -20°C mit folgenden Methoden:
Von dem synthetischen Peptidsubstrat S-2288 (D-H-Ile-Pro-Arg-p-Nitroanilin) der Firma Kabi Diagnostica wird durch das t-PA p-Nitroanilin als Reaktionsprodukt gebildet. Die Aktivität von t-PA ist zur Bildung von p-Nitroanilin proportional, die bei […], 37°C, gemessen wird.
Die spektrophotometrische Bestimmung der Enzymkinetik wurde mit einem ACP-5010-Analysengerät der Firma Eppendorf automatisch durchgeführt.
Die Aktivität des Enzyms wurde anhand dieses vorgegebenen Standards berechnet. Eine t-PA-Standardreihe von 1-15 µg/ml wurde mit einem Laborstandard hergestellt, der zu 72% aus 1-kettigem Material besteht.
Die Substratlösung (100 mM Tris/106 mM NaCl) wurde in einer Konzentration von 50 mM eingesetzt.

Structure (SMILES) | Einfluß auf die Synthese von t-PA (Bowes-Melanoma-Zellen) | Einbau von [³H]-Leucin (CHO-Zellen [1]) | extrazellulärer Proteingehalt gegenüber der Kontrolle (CHO-Zellen [1]) | Hemmung des Zellwachstums (CHO-Zellen [2]) | minimal effective concentration (CHO-Zellen [3]; CHO, read-out: für die t-PA-Stimulierung notwendige Konzentrationen) [µM] | % Steigerung der t-PA-Synthese Durchschnitt (CHO-Zellen [3]; Table 3, mean ± SE, n = 3-24, production runs of 3 to 4 days, acids added day 0 to 3, 1 ml supernatant vs control (0%), 7,5% FKS) | % Steigerung der t-PA-Synthese Maximum (CHO-Zellen [3]; Table 3, single sample, 1 ml supernatant vs control (0%), 7,5% FKS, its concentration, addition and sampling day in brackets in Tables 3/3A) | optimaler Dosisbereich (CHO-Zellen [3]; Table 3, stimulation of t-PA synthesis, medium with 7,5% FKS, bracketed value = concentration of the single (maximum) sample) | Steigerung der t-PA-Produktion (CHO-Zellen [3]; Table 4, Applikationstag 0, after 48 h growth, 7,5% FKS, 1 mM or 5 mM, 1 ml supernatant vs control (0%), mean ± SE) | Steigerung der t-PA-Produktion (CHO-Zellen [3]; Table 4, Applikationstag 1, after 48 h growth, 7,5% FKS, 1 mM or 5 mM, 1 ml supernatant vs control (0%), mean ± SE) | Steigerung der t-PA-Produktion (CHO-Zellen [3]; day 4, medium with 7,5% FKS (Abb. 7)) | prozentuale Steigerung niedriger als Buttersäure (CHO-Zellen [3]; difference to Buttersäure)
CCCC(=O)Nc1ncnc2c1ncn2[C@@H]1O[C@@H]2COP(=O)(O)O[C@H]2[C@H]1OC(=O)CCC [Dibutyryl c-AMP] | keinen Einfluß | – | – | – | – | – | – | – | – | – | – | –
CCC(=O)O [Propionsäure] | – | nur geringfügig gesteigert | nur gering erhöht | in geringerem Maße | 5000 to 10000 | 28,0 ± 2,5% | 45,5% | 5-10 mM (10 mM) | 28,7 ± 9,3% | 24,4 ± 4,1% | 31,8% | ca. 14%
